Measured values as given in ChEMBL document CHEMBL3727366, “Heterocyclic compounds for the treatment of stress-related conditions” (2013).
Calls of active or inactive are those of the source. How the calls were made is not given here.

How the values were obtained:
Rattus norvegicus [1] = assay: Inhibition of restraint stress-induced defecation in Wistar rat at 5 mL/kg, po dosed 1 or 2 hrs before restraint stress; type: functional, organism-based
Rattus norvegicus [2] = assay: Inhibition of tail-pinch stress-induced feeding behavior in Wistar rat at 5 mL/kg, po dosed 1 or 2 hrs before tail-pinch stimulus; type: functional, organism-based
[3] = target: T1, Prolactin-releasing peptide receptor (Homo sapiens, UniProt P49683); assay: Displacement of [3H]-PrRP from human GPR10 receptor expressed in HEK293 cell membranes incubated for 90 mins by liquid scintillation counting method
T1 sequence (P49683 whole entry): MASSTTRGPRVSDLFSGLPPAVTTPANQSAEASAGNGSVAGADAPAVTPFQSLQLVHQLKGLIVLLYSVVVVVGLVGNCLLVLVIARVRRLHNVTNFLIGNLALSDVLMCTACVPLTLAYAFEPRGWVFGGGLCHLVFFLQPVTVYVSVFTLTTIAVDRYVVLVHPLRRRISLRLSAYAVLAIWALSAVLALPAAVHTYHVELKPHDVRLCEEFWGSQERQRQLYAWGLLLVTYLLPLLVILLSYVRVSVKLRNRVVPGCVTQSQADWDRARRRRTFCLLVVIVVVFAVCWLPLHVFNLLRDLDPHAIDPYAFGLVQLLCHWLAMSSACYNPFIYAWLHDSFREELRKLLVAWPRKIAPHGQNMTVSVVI

Row | Ki [3] [nM] | SMILES | inhibition (Rattus norvegicus [1]) | inhibition (Rattus norvegicus [2])
1 |  | CC#CCn1c(N[C@@H](C)c2ccc(C(F)(F)F)cc2)nc2c(c1=O)CN(C(=O)c1ccc3c(c1)OCO3)CC2 | Active | Active
2 |  | COn1c(N[C@@H](C)c2ccc(C(F)(F)F)cc2)nc2c(c1=O)CN(C(=O)c1cc3cc(Cl)ccc3o1)CC2 | Active | Active
3 |  | COn1c(NC(CCC(F)(F)F)c2ccc(Cl)cc2)nc2c(c1=O)CN(C(=O)c1ccc(Cl)cc1)CC2 (stereo unspecified) | Active | Active
4 |  | COn1c(NCc2ccc(C(F)(F)F)cc2)nc2c(c1=O)CN(C(=O)c1ccc(Cl)cc1)CC2 | Active | Active
5 |  | CC#CCn1c(N[C@@H](C)c2ccc(C(F)(F)F)cc2)nc2c(c1=O)CN(C(=O)c1ccc(C#N)cc1F)CC2 | Active | Active
6 |  | CC#CCn1c(N[C@@H](C)c2ccc(C(F)(F)F)cc2)nc2c(c1=O)CN(C(=O)c1ccc(-n3ccnc3)cc1)CC2 | Active | Active
7 |  | C[C@H](Nc1nc2c(c(=O)n1N(C)C)CN(C(=O)c1ccc(Cl)cc1)CC2)c1ccc(Cl)cc1 | Active | Active
8 |  | CCOc1ccc(C(=O)N2CCc3nc(N[C@@H](C)c4ccc(C(F)(F)F)cc4)n(OC)c(=O)c3C2)cc1 | Active | Active
9 |  | COn1c(NC(c2ccc(Cl)cc2)C(C)C)nc2c(c1=O)CN(C(=O)c1ccc(Cl)cc1)CC2 (stereo unspecified) | Active | Active
10 |  | C#CCn1c(N[C@@H](C)c2ccc(Cl)cc2)nc2c(c1=O)CN(C(=O)c1ccc(Cl)cc1)CC2 | Active | Active
11 | 56 | COn1c(N[C@@H](C)C2CCCCC2)nc2c(c1=O)CN(C(=O)c1ccc(C#N)cc1F)CC2 | Active | Active
12 |  | CC#CCn1c(N[C@@H](C)c2ccc(C(F)(F)F)cc2)nc2c(c1=O)CN(C(=O)c1ccc(OC)cc1)CC2 | Active | Active
13 |  | C#CCCn1c(N[C@@H](C)c2ccc(C(F)(F)F)cc2)nc2c(c1=O)CN(C(=O)c1ccc(C(=O)N(C)C)cc1)CC2 | Active | Active
14 |  | CC#CCn1c(N[C@@H](C)c2ccc(C(F)(F)F)cc2)nc2c(c1=O)CN(C(=O)c1ccc(C#N)cc1)CC2 | Active | Active
15 |  | CC#CCn1c(N[C@@H](C)c2ccc(C(F)(F)F)cc2)nc2c(c1=O)CN(C(=O)c1ccc3ccccc3n1)CC2 | Active | Active
16 |  | C[C@H](Nc1nc2c(c(=O)n1N(C)C)CN(C(=O)COc1ccc(Cl)cc1)CC2)c1ccc(C(F)(F)F)cc1 | Active | Active
17 | 15 | COn1c(N[C@@H](C)c2ccc(C(F)(F)F)cc2)nc2c(c1=O)CN(C(=O)c1cc3ccccc3s1)CC2 |  | 
18 |  | CC#CCn1c(N[C@@H](C)c2ccc(C(F)(F)F)cc2)nc2c(c1=O)CN(C(=O)c1ccc(Cl)cc1)CC2 | Active | Active
19 |  | C#CCCn1c(N[C@@H](C)c2ccc(C(F)(F)F)cc2)nc2c(c1=O)CN(C(=O)c1ccc(-n3ccnc3)cc1)CC2 | Active | Active
20 | 8 | COn1c(N[C@@H](C)c2ccc(C(F)(F)F)cc2)nc2c(c1=O)CN(C(=O)c1ccc(C)c(F)c1)CC2 | Active | Active
21 |  | C[C@H](Nc1nc2c(c(=O)n1N(C)C)CN(C(=O)COc1ccc(Cl)cc1)CC2)c1ccc(Cl)cc1 | Active | Active
22 |  | CC#CCn1c(N[C@@H](C)c2ccc(C(F)(F)F)cc2)nc2c(c1=O)CN(C(=O)c1ccc3cccnc3c1)CC2 | Active | Active
23 |  | CCC(Nc1nc2c(c(=O)n1OC)CN(C(=O)c1ccc(Cl)cc1)CC2)c1ccc(Cl)cc1 (stereo unspecified) | Active | Active
24 |  | C[C@H](Nc1nc2c(c(=O)n1N(C)C)CN(C(=O)c1ccc(C#N)cc1F)CC2)c1ccc(C(F)(F)F)cc1 | Active | Active
25 |  | COn1c(N[C@@H](C)c2ccc(C(F)(F)F)cc2)nc2c(c1=O)CN(C(=O)c1cnc3ccccc3c1)CC2 | Active | Active
26 |  | C#CCn1c(N[C@@H](C)c2ccc(C(F)(F)F)cc2)nc2c(c1=O)CN(C(=O)c1ccc(Cl)cc1)CC2 | Active | Active
27 |  | COn1c(N[C@@H](C)c2ccc(C(F)(F)F)cc2)nc2c(c1=O)CN(C(=O)c1ccc(Cl)c(C)c1)CC2 | Active | Active
28 |  | C#CCn1c(N[C@@H](C)c2ccc(C(F)(F)F)cc2)nc2c(c1=O)CN(C(=O)c1c(F)cccc1F)CC2 | Active | Active

Row | Ki [3] [nM] | SMILES | inhibition (Rattus norvegicus [1]) | inhibition (Rattus norvegicus [2])
29 |  | C#CCCn1c(N[C@@H](C)c2ccc(C(F)(F)F)cc2)nc2c(c1=O)CN(C(=O)c1ccc(C)cc1)CC2 | Active | Active
30 |  | C#CCCn1c(N[C@@H](C)c2ccc(C(F)(F)F)cc2)nc2c(c1=O)CN(C(=O)c1nc3ccccc3[nH]1)CC2 | Active | Active
31 |  | COn1c(N[C@@H](C)c2ccc(C(F)(F)F)cc2)nc2c(c1=O)CN(C(=O)c1ccc(OC(F)(F)F)cc1)CC2 | Active | Active
32 |  | CC#CCn1c(N[C@@H](C)c2ccc(C(F)(F)F)cc2)nc2c(c1=O)CN(C(=O)c1ccc3c(c1)CCC(=O)N3)CC2 | Active | Active
33 |  | COn1c(N[C@@H](C)c2ccc(C(F)(F)F)cc2)nc2c(c1=O)CN(C(=O)c1ccc3c(c1)CCC(=O)N3C)CC2 | Active | Active
34 |  | C#CCCn1c(N[C@@H](C)c2ccc(C(F)(F)F)cc2)nc2c(c1=O)CN(C(=O)c1ccc(-c3cnco3)cc1)CC2 | Active | Active
35 |  | CC#CCn1c(N[C@@H](C)c2ccc(C(F)(F)F)cc2)nc2c(c1=O)CN(C(=O)c1cnc3ccccc3c1)CC2 | Active | Active
36 |  | C=Cc1ccc(C(=O)N2CCc3nc(N[C@@H](C)c4ccc(C(F)(F)F)cc4)n(OC)c(=O)c3C2)cc1 | Active | Active
37 |  | COc1cc(Cl)ccc1C(=O)N1CCc2nc(N[C@@H](C)c3ccc(C(F)(F)F)cc3)n(OC)c(=O)c2C1 | Active | Active
38 |  | COn1c(N[C@@H](C)c2ccc(C(F)(F)F)cc2)nc2c(c1=O)CN(C(=O)c1ccc(C#N)cc1)CC2 | Active | Active
39 |  | CC#CCn1c(N[C@@H](C)c2ccc(C(F)(F)F)cc2)nc2c(c1=O)CN(C(=O)c1ccc(C)c(C)c1)CC2 | Active | Active
40 |  | C#CCCn1c(N[C@@H](C)c2ccc(C(F)(F)F)cc2)nc2c(c1=O)CN(C(=O)c1ccc(C#N)cc1F)CC2 | Active | Active
41 |  | CC#CCn1c(N[C@@H](C)c2ccc(C(F)(F)F)cc2)nc2c(c1=O)CN(C(=O)c1ccc(-c3cnco3)cc1)CC2 | Active | Active
42 |  | COn1c(NCc2ccc(Cl)cc2)nc2c(c1=O)CN(C(=O)c1ccc(Cl)cc1)CC2 | Active | Active
43 |  | C[C@H](Nc1nc2c(c(=O)n1N1CCOCC1)CN(C(=O)c1ccc(C#N)cc1)CC2)c1ccc(C(F)(F)F)cc1 | Active | Active
44 |  | COn1c(N2CCCC2c2ccc(C(F)(F)F)cc2)nc2c(c1=O)CN(C(=O)c1ccc(Cl)cc1)CC2 (stereo unspecified) | Active | Active
45 |  | C[C@H](Nc1nc2c(c(=O)n1N(C)C)CN(C(=O)c1ccc(Cl)cc1)CC2)c1ccc(C(F)(F)F)cc1 | Active | Active
46 |  | COn1c(N[C@@H](C)c2ccc(C(F)(F)F)cc2)nc2c(c1=O)CN(C(=O)c1ccc(Cl)cc1)CC2 | Active | Active
47 |  | COn1c(N[C@@H](C)c2ccc(Cl)cc2)nc2c(c1=O)CN(C(=O)c1ccc(Cl)cc1)CC2 | Active | Active
48 |  | C[C@H](Nc1nc2c(c(=O)n1N(C)C)CN(C(=O)c1c(F)cc(F)cc1F)CC2)c1ccc(C(F)(F)F)cc1 | Active | Active
49 |  | COn1c(N[C@@H](C)c2ccc(C(F)(F)F)cc2)nc2c(c1=O)CN(C(=O)c1ccc(C#N)cc1F)CC2 | Active | Active
50 |  | COn1c(N[C@@H](C)c2ccc(Cl)cc2)nc2c(c1=O)CN(C(=O)c1cc3cccnc3s1)CC2 | Active | Active
51 |  | C#CCn1c(N[C@@H](C)c2ccc(C(F)(F)F)cc2)nc2c(c1=O)CN(C(=O)c1ccc(C#N)cc1F)CC2 | Active | Active
52 |  | C#CCn1c(N[C@@H](C)c2ccc(C(F)(F)F)cc2)nc2c(c1=O)CN(C(=O)c1cccc(C#N)c1)CC2 | Active | Active
53 |  | C#CCCn1c(N[C@@H](C)c2ccc(C(F)(F)F)cc2)nc2c(c1=O)CN(C(=O)c1ccc(C#N)cc1)CC2 | Active | Active
54 |  | CC#CCn1c(N[C@@H](C)c2ccc(C(F)(F)F)cc2)nc2c(c1=O)CN(C(=O)c1cc3ccccn3n1)CC2 | Active | Active
55 |  | CCOc1ccc(CNc2nc3c(c(=O)n2OC)CN(C(=O)c2ccc(C#N)cc2F)CC3)cc1 | Active | Active
